Where a name gives a salt, the structure may show the parent alone. Read-outs that look alike come from different tables or passages of the source.
Key:
[1] = test system: methylphenidate-induced gnawing; assay: Methylphenidate antagonism; assay type: in vivo, mice; settings: for MePh Antg. ED50 (sc): *ED50 from sc administration; for ED50: Mus musculus
[2] = target: T1, dopamine (DA) D-2 receptors (Rattus norvegicus, UniProt P61169); assay: 3H-spiroperidol binding, dopamine D-2 receptors in rat striatal membranes
T1 construct: DA D-2 receptors in rat striatal membranes; from tissue; host or cells: rat striatal membranes
T1 sequence (P61169 whole entry): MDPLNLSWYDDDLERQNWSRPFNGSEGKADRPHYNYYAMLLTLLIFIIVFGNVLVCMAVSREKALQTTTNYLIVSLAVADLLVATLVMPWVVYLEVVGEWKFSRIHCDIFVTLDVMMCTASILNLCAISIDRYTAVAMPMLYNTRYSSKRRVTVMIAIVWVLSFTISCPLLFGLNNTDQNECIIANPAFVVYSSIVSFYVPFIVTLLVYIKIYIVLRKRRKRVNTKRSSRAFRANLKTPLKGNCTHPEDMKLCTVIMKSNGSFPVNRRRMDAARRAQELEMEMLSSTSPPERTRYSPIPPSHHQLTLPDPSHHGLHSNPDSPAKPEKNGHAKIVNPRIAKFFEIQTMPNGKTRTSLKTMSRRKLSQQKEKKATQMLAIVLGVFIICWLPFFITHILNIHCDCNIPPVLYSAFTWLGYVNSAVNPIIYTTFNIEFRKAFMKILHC
Procedure: (§1) 4. ^3 H-spiroperidol bindings
The affinity of compounds to dopamine (DA) D-2 receptors and serotomin2 (5-HT2) receptors was determined by in vitro receptor binding technique.
Arnt, J., J. Hyttel and J.-J. Larsen: Acta pharmacol. et toxicol.

[3] = target: T2, 5-HT2 receptor (Rattus norvegicus, UniProt P14842); assay: Quipazine inhibition (head twitches); assay type: in vivo; settings: sc 2 hours before quipazine 15 umol/kg sc
T2 construct: from tissue; host or cells: living rats (in vivo), CNS
T2 sequence (P14842 whole entry): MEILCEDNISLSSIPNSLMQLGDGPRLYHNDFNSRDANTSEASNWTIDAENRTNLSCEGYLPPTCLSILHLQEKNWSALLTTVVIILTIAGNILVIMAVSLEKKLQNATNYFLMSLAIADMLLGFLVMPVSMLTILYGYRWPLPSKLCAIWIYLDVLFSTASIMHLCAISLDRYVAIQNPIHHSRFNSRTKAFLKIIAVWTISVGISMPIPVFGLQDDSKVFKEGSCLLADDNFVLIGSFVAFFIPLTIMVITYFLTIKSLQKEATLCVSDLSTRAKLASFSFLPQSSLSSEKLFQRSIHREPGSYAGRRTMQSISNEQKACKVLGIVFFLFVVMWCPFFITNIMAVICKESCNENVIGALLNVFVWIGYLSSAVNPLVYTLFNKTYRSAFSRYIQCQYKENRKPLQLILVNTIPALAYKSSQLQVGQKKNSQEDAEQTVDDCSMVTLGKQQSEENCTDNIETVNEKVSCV
Procedure: Quipazine and a number of other compounds, which increase 5-HT2 receptor activity in the CNS, induce a characteristic rapid shake (twitch) of the head. This response is inhibited by 5-HT2 receptor antagonists (Vetulani et al. 1980, Arnt et al. 1984).
The test compound or saline is injected subcutaneously 2 hours before subcutaneous injection of quipazine hemimalecate (15umol/kg). At least 3 dose groups, each consisting of at least 4 rats, are used. The rats are individually placed in observation cages (12×25 cm) and the number of head twitches are counted 30-40 min after quipazine administration. Inhibition of head twitches is expressed in per cent of the number of head twitches in the control group. ED 50 values are calculated by log-probit analysis.
Vetulani, J., B.B. Beduarczyk, K. Reichenberg and A. Rokost: Neuropharmacology 19, 155-158, […].
(§2) Arnt, J., J. Hyttel and J.-J. Larsen: Acta pharmacol. et toxicol. 55, 363-372, 1984.

[4] = target: T3, serotomin2 (5-HT2) receptors (Rattus norvegicus, UniProt P14842); assay: 3H-spiroperidol binding, 5-HT2 receptors in rat cortical membranes; settings: in vitro, read-out: 3H-Spiroperidol bindings 5-HT2 receptors IC50
T3 construct: 5-HT2 receptors in rat cortical membranes; from tissue; host or cells: rat cortical membranes
T3 sequence (P14842 whole entry): as above
Procedure: as §1
The affinity of compounds to dopamine (DA) D-2 receptors and serotomin2 (5-HT2) receptors was determined by in vitro receptor binding technique. Binding of ^3 H-spiroperidol to DA D-2 receptors in rat striatal membranes and to 5-HT2 receptors in rat cortical membranes was determined as described in detail by Arnt et al. (1984).
as §2

[5] = Catalepsy; assay type: in vivo, rat; settings: for Catalep. ED50 (sc) 1-6 h / Catalep. ED50 (sc) 24 h: *ED50 from sc administration
[6] = mice, methylphenidate s.c. 60 mg/kg
[7] = i.p. test substance, mice, methylphenidate s.c. 60 mg/kg
[8] = rat striatal membranes, in vitro, read-out: 3H-Spiroperidol bindings DA-2 receptors IC50
[9] = sc, read-out: MePh Antg. ED50 (sc)
[10] = Rattus norvegicus, sc, 24 h, read-out: Catalep. ED50 (sc) 24 h
[11] = Rattus norvegicus, sc, read-out: Catalep. ED50 (sc) 1-6 h
[12] = ip, i.p. test substance, mice, methylphenidate s.c. 60 mg/kg, read-out: MePh Antg. ED50(ip)

Cc1nccn1CCN1CC=C(c2cn(-c3ccc(F)cc3)c3ccc(C(F)(F)F)cc23)CC1 [Lu 23-173, 1-(4'-Fluorophenyl)-3-(1-(2-methyl-1-imidazole-2-ethyl)-1,2,3,6-tetrahydropyridin-4-yl)-5-trifluoromethyl-1H-indole, difumarate]
MePh Antg. ED50 (sc) [1, 6]: 0.77 µmol/kg
IC50 [2]: 42 nM
Qvipaz. inh. ED50(sc) [3]: > 7.1 µmol/kg
IC50 [4]: 60 nM
Catalep. ED50 (sc) 1-6 h ([5]; rat, 1-6 h): 1.8 µmol/kg

O=C1NCCN1CCN1CCN(c2cn(-c3ccc(F)cc3)c3ccc(C(F)(F)F)cc23)CC1 [Lu 23-001, 1-(4'-Flurophenyl)-3-(4-(2-imidazolidinon-1-ylethyl)-1-piperazino)-5-trifluoromethyl-1H-indole, dihydrobromide]
MePh Antg. ED50(ip) [1, 7]: 0.22 µmol/kg
IC50 [2, 8]: 6.6 nM
Qvipaz. inh. ED50(sc) [3]: 0.047 µmol/kg
IC50 [4]: 18 nM
Catalep. ED50(po) 1-6 h ([5]; po, rat, 1-6 h): 1.2 µmol/kg
Catalep. ED50(po) 24 h ([5]; po, rat, 24 h): 2.6 µmol/kg

Cc1ccc2c(c1)c(C1=CCN(C)CC1)cn2-c1ccc(F)cc1.Cl [Lu 20-089, 1-(4'-Fluorophenyl)-5-methyl-3-(1-methyl-1,2,3,6-tetrahydropyridin-4-yl)-1H-indole, hydrochloride]
MePh Antg. ED50(ip) [1, 7]: 0.18 µmol/kg
IC50 [2]: 0.34 nM
Qvipaz. inh. ED50(sc) [3]: 0.12 µmol/kg
IC50 [4]: 1.8 nM
Catalep. ED50(po) 1-6 h ([5]; po, rat, 1-6 h): 0.43 µmol/kg
Catalep. ED50(po) 24 h ([5]; po, rat, 24 h): 6.5 µmol/kg

O=C1NCCN1CCN1CC=C(c2cn(-c3ccc(F)cc3)c3ccc([N+](=O)[O-])cc23)CC1 [Lu 23-142, 1-(4'-Fluorophenyl)-3-(1-(2-imidazolidinon-1-ylethyl)-1,2,3,6-tetrahydropridin-4-yl)-5-nitro-1H-indole]
MePh Antg. ED50 (sc) [1, 6]: 2.6 µmol/kg
IC50 [4]: 6.7 nM

O=C1CCCN1CCN1CC=C(c2cn(-c3ccc(F)cc3)c3ccc([N+](=O)[O-])cc23)CC1 [Lu 23-024, 1-(4'-Fluorophenyl)-5-nitro-3-(1-pyrrolidin-2-onylethyl)-1,2,3,6-tetrahydropyridin-4-yl)-1H-indole, hydrochloride]
MePh Antg. ED50(ip) [1, 7]: 0.65 µmol/kg
IC50 [4]: 5.3 nM
Catalep. ED50 (sc) 1-6 h ([5]; rat, 1-6 h): 6.8 µmol/kg
Catalep. ED50 (sc) 24 h ([5]; rat, 24 h): > 10 µmol/kg

OCCN1CC=C(c2cn(-c3ccc(F)cc3)c3ccc(F)cc23)CC1 [Lu 23-160, 5-fluoro-1-(4'-flurophenyl)-3-(1-(2-hydroxyethyl)-1,2,3,6-tetrahydropyridin-4-yl)-1H-indole, oxalate]
MePh Antg. ED50 (sc) [1, 6]: 3.4 µmol/kg
IC50 [2]: 11 nM
IC50 [4]: 34 nM
Catalep. ED50 (sc) 24 h ([5]; rat, 24 h): 5.2 µmol/kg

CN1CC=C(c2cn(-c3ccsc3)c3ccc(Cl)cc23)CC1.O=C(O)/C=C\C(=O)O [Lu 24-001, 5-Chloro-3-(1-methyl-1,2,3,6-tetrahydropyridin-4-yl)-1-(3-thienyl)-1H-indole, maleate]
MePh Antg. ED50(ip) [1, 7]: 2.6 µmol/kg
Qvipaz. inh. ED50(sc) [3]: 0.19 µmol/kg
IC50 [4]: 8.8 nM

O=[N+]([O-])c1ccc2c(c1)c(C1=CCN(CCO)CC1)cn2-c1ccc(F)cc1 [Lu 23-150, 1-(4'-fluoropheynl)-3-(1-(2-hydroxyethyl)-1,2,3,6-tetrahydropyridin-4-yl)-5-nitro-1H-indole]
MePh Antg. ED50 (sc) [1, 6]: 0.07 µmol/kg
IC50 [2]: 4.7 nM
IC50 [4]: 10 nM
Catalep. ED50(po) 1-6 h ([5]; po, rat, 1-6 h): 0.21 µmol/kg

OCCN1CC=C(c2cn(-c3ccc(F)cc3)c3ccc(C(F)(F)F)cc23)CC1 [Lu 23-156, 1-(4'-Fluorophenyl)-3-(1-(2-hydroxyethyl)-1,2,3,6-tetrahydropyridin-4-yl) -5-trifluoromethyl-1H-indole]
ED50 [1, 9]: 0.07 µmol/kg
IC50 [2]: 19 nM
Qvipaz. inh. ED50(sc) [3]: 0.03 µmol/kg
IC50 [4]: 15 nM
ED50 [5, 10]: 1.1 µmol/kg
ED50 [5, 11]: < 0.19 µmol/kg

CN1CC=C(c2cn(-c3ccccc3F)c3ccc([N+](=O)[O-])cc23)CC1 [Lu 24-003, 1-(2'-Fluorophenyl)-5-nitro-3-(1-methyl-1,2,3,6-tetrahydropyridin-4-yl)-1H-indole, maleat]
MePh Antg. ED50 (sc) [1, 6]: 0.09 µmol/kg
IC50 [2]: 6 nM
IC50 [4]: 14 nM

OCCCN1CC=C(c2cn(-c3ccc(F)cc3)c3ccc(F)cc23)CC1 [Lu 23-175, 5-Fluor-1-(4'-fluorophenyl)-3-(1-(3-hydroxypropyl)-1,2,3,6-tetrahydropyridin-4-yl)-1H-indole, oxalate]
MePh Antg. ED50 (sc) [1, 6]: 0.32 µmol/kg
IC50 [2]: 11 nM
IC50 [4]: 6.7 nM
Catalep. ED50 (sc) 1-6 h ([5]; rat, 1-6 h): 0.68 µmol/kg

CN1CC=C(c2cn(-c3ccc(F)cc3)c3ccccc23)CC1.Cl [Lu 23-083, 1-(4'-Fluorophenyl)-3-(1-methyl-1,2,3,6-tetrahydropyridin-4-yl)-1H-indole, hydrochloride]
ED50 [1, 9]: 1.3 µmol/kg
IC50 [2]: 1.8 nM
Qvipaz. inh. ED50(sc) [3]: 0.15 µmol/kg
ED50 ([5]; Rattus norvegicus, po, 24 h, read-out: Catalep. ED50(po) 24 h): > 14 µmol/kg
ED50 ([5]; Rattus norvegicus, po, read-out: Catalep. ED50(po) 1-6 h): 9.4 µmol/kg

O=C1OCCN1CCN1CC=C(c2cn(-c3ccc(F)cc3)c3ccc([N+](=O)[O-])cc23)CC1 [Lu 23-134, 1-(4'-Fluorophenyl)-5-nitro-3-(1-(2-oxazolidinon-3-ylethyl)-1,2,36-tetrahydropyridin-4-yl)-1H-indole, maleate]
MePh Antg. ED50 (sc) [1, 6]: 9.0 µmol/kg
IC50 [2]: 2.8 nM
IC50 [4]: 15 nM
Catalep. ED50(po) 1-6 h ([5]; po, rat, 1-6 h): 1.1 µmol/kg
Catalep. ED50(po) 24 h ([5]; po, rat, 24 h): > 8.8 µmol/kg

O=C1CCCN1CCN1CCN(c2cn(-c3ccc(F)cc3)c3ccc(C(F)(F)F)cc23)CC1 [Lu 22-133, 1-(4'-Fluorophenyl)-3-(4-(1-pyrrolidin-2-onylethyl)-1-piperazino)-5-trifluoromethyl-1H-indole]
ED50 [1, 12]: 0.82 µmol/kg
Qvipaz. inh. ED50(sc) [3]: 0.15 µmol/kg
IC50 [4]: 1.9 nM
ED50 [5, 10]: 1.7 µmol/kg
ED50 [5, 11]: 0.66 µmol/kg

CC(C)CN1CC=C(c2cn(-c3ccc(F)cc3)c3ccc(Cl)cc23)CC1 [Lu 22-134, 5-Chloro-1-(4'-fluorophenyl)-3-(1-isobutyl-1,2,3,6-tetrahydropyridin-4-yl)-1H-indole, hydrobromide]
ED50 ([1]; ip, read-out: MePh Antg. ED50(ip)): 1.7 µmol/kg
IC50 [2]: 5.3 nM
Qvipaz. inh. ED50(sc) [3]: 2.5 µmol/kg
ED50 [5, 10]: > 2.7 µmol/kg
ED50 [5, 11]: 2.7 µmol/kg

CN1CCN(c2cn(-c3ccc(F)cc3)c3ccc(C(F)(F)F)cc23)CC1 [Lu 21-123, 1-(4'-Fluorophenyl)-3-(4-methylpiperazio)-5-trifluoromethyl-1H-indole, dihydrochloride]
ED50 [1, 12]: 0.09 µmol/kg
IC50 [2, 8]: 1.7 nM
IC50 [4]: 6.7 nM
ED50 ([5]; read-out: Catalep. ED50(po) 1-6 h, po, rat, 1-6 h): 0.08 µmol/kg
ED50 ([5]; read-out: Catalep. ED50(po) 24 h, po, rat, 24 h): 0.62 µmol/kg

O=C1NCCN1CCN1CCC(c2cn(-c3ccc(F)cc3)c3ccccc23)CC1 [Lu 23-086, 1-(4'-Fluorophenyl)-3-(1-(2--imidazolidinon-1-ylethyl)-4-piperidyl)-1H-indole]
MePh Antg. ED50 (sc) [1, 6]: > 98 µmol/kg
IC50 [2, 8]: 42 nM
Qvipaz. inh. ED50(sc) [3]: 0.036 µmol/kg
IC50 [4]: 2.9 nM
